The values that follow come from patent publication US9663514B2 (Takeda Pharmaceutical Company Limited, priority 2011, dated 2017).

In the test the target is T1, SYK (Homo sapiens, UniProt P43405).
T1 construct: The SYK kinase domain (residues 356-635) is amplified via PCR; made in house; host or cells: Sf9 insect cells (baculovirus, pFastBac1)
As to the kind of experiment: SYK inhibition: in vitro assay of SYK-mediated phosphorylation of FAM-labeled substrate (Caliper LC-3000). It counts as biochemical. The conditions noted are these: SYK kinase domain (residues 356-635); 2.4 nM SYK and 45 μM ATP, 3 μM 5FAM-KKKKEEIYFFFG-NH2, RT 60 min, pH 7.3; pIC50 = −log(IC50), IC50 molar. The protocol: The ability of compounds to inhibit SYK activity may be assessed using a variety of methods, including in vitro and in vivo assays. The following in vitro assay measures a test compound's ability to inhibit SYK-mediated phosphorylation of a FAM-labeled SYK-specific substrate (5FAM-KKKKEEIYFFFG-NH2).
SYK protein is prepared from cDNA encoding human spleen tyrosine kinase and is expressed in insect cells using a baculovirus expression vector. The cDNA (IMAGE: 3542895) is purchased from Open Biosystems. The SYK kinase domain (residues 356-635) is amplified via PCR and cloned into plasmid pFastBacl (Invitrogen) at BamHI/XbaI sites. Recombinant plasmid encoding Met-Ala-Lys-SYK(356-635)-HHHHHH is sequenced and transformed into E. coli DH10Bac strain. The recombinant bacmid DNA is isolated and transfected into Sf9 insect cells. Recombinant virus is harvested 72 h after transfection. High titer viral stock is prepared by infecting Sf9 cells at a multiplicity of infection (MOI) of approximately 0.01. A suspension of Sf9 cells (10 L) is infected with recombinant virus (MOI=5) and is incubated in a Wave Bioreactor (GE-Healthcare) for 48 h. The cells are harvested and stored at −80° C.
To purify the expressed protein, the frozen Sf9 cells (10 L) are broken into small (<1 cm) particles and suspended in a lysis buffer (300 mL) containing 20 mM Tris (pH 7.6), 0.25 mM TCEP, 100 mM NaCl, 5% glycerol and a protease inhibitor. The suspension is stirred at RT until completely thawed, lysed an additional 2-4 min on a rotary blade homogenizer, and then centrifuged at 4200 g for 1 h. Following centrifugation, the supernatant is poured through cheese cloth and combined with a nickel chelating resin (Probond Resin™, Invitrogen) which is pre-equilibrated in a wash buffer containing 10 mM Tris (pH 7.6), 0.25 mM TCEP, 300 mM NaCl, 5% glycerol, and 20 mM imidazole. The mixture is agitated for 3 h in a cold room and then centrifuged at 900 g for 10 min. The resin is dispersed in wash buffer (50 mL), centrifuged for 10 min at 900 g, re-dispersed in a small amount of wash buffer (5 mL), and then pour into a disposable Poly-Prep chromatography column, through which wash buffer is passed by gravity until no protein is observed in coomassie buffer (about 120 mL of wash buffer). An elution buffer (30 mL) containing 10 mM HEPES (pH 7.4), 150 mM NaCl, 10% glycerol, 5 mM DTT, and 400 mM imidazole is used to elute the SYK protein from the resin. The eluate is concentrated (5 mL) and further purified on a Superdex 200 column (1.2 mL/min for 160 min, 10 mM HEPES (pH 7.4), 10 mM NaCl, 10 mM MgCl, 0.1 mM EDTA, and 0.25 mM TCEP). The chromatographed fractions are run on SDS-PAGE and the requisite fractions are pooled and concentrated. Final delivery buffer is 10 mM HEPES (pH 7.4), 10 mM Methione, 150 mM NaCl, 10% glycerol, 5 mM DTT.
SYK inhibition is determined using a black 384 well plate format in buffer containing 50 mM HEPES, 10 mM NaCl, 10 mM MgCl2, 0.2 mM EDTA, 0.01% EDA (Brij®35), 1 mM DTT, and 0.1 mg/ml BSA at pH 7.3. Each test compound is prepared in DMSO using 2-fold serial dilutions for 11 data points, which are added to the buffer so that each dilution contains 3% DMSO. To each well is added 2 μL of 3 μM SFAM-KKKKEEIYFFFG-NH2 (in buffer), 2 μL of diluted test compound (3% DMSO in buffer), and 2 μL of 2.4 nM SYK and 45 μM ATP (in buffer). The reaction mixture is incubated at RT for 60 min, and quenched by adding 50 mM Hepes, 30 mM EDTA, 0.1% Triton X-100 (pH 7.3). To quantify the fluorescent-labeled substrate and product following reaction, the test plate is loaded on a Caliper LC-3000, which measures percent of conversion by microfluidic-based separation. Corresponding IC50 values are calculated by non-linear curve fitting of the compound concentrations and percent of inhibition to the standard IC50 equation and reported as pIC50, i.e., −log(IC50), where IC50 is molar concentration.

For `N[C@H]1COCC[C@H]1Nc1nc(/C=C/c2ccc(F)cc2)c2c(c1F)CNC2=O` [Example 46, 6-((3R,4R)-3-Aminotetrahydro-2H-pyran-4-ylamino)-7-fluoro-4-(4-fluorostyryl)-1H-pyrrolo[3,4-c]pyridin-3(2H)-one], 5.01 nM corresponded to half-maximal inhibition (IC50).
The compound `N[C@H]1CCCC[C@H]1Nc1nc(CCc2ccccc2)c2c(c1F)CNC2=O` [Example 47, 6-((1R,2S)-2-Aminocyclohexylamino)-7-fluoro-4-phenethyl-1H-pyrrolo[3,4-c]pyridin-3 (2H)-one] had an IC50 of 100 nM.
Turning to `N[C@H]1COCC[C@H]1Nc1nc(CCc2ccccc2)c2c(c1F)CNC2=O` [Example 48], inhibition was half-maximal at 100 nM (IC50).
Next, `N[C@H]1COCC[C@H]1Nc1nc(CCc2ccc(Cl)cc2)c2c(c1F)CNC2=O` [Example 49, 6-((3R,4R)-3-Aminotetrahydro-2H-pyran-4-ylamino)-4-(4-chlorophenethyl)-7-fluoro-1H-pyrrolo[3,4-c]pyridin-3(2H)-one]: 63.1 nM.
In turn, `N[C@H]1CCCC[C@H]1Nc1nc(/C=C/c2ccc(Cl)cc2)c2c(c1F)CNC2=O` [Example 50, 6-((1R,2S)-2-Aminocyclohexylamino)-4-(4-chlorostyryl)-7-fluoro-1H-pyrrolo[3,4-c]pyridin-3(2H)-one] gave a half-maximal inhibitory concentration (IC50) of 2 nM. This IC50 is about 32-fold lower than that of the compound before.
On to `N[C@H]1COCC[C@H]1Nc1nc(/C=C/c2ccc(Cl)cc2)c2c(c1F)CNC2=O` [Example 51], for which the concentration for half-maximal inhibition (IC50) was 2 nM.
`C[C@H]1NC(=O)c2c(-c3cnn4ccc(F)cc34)nc(N[C@@H]3CCCC[C@@H]3N)c(F)c21` [Example 52, (R)-6-(((1R,2S)-2-Aminocyclohexyl)amino)-7-fluoro-4-(5-fluoropyrazolo[1,5-a]pyridin-3-yl)-1-methyl-1H-pyrrolo[3,4-c]pyridin-3(2H)-one] had an IC50 of 39.8 nM.
Compound `C[C@@H]1NC(=O)c2c(-c3cnn4ccc(F)cc34)nc(N[C@@H]3CCCC[C@@H]3N)c(F)c21` [Example 53, (S)-6-(((1R,2S)-2-Aminocyclohexyl)amino)-7-fluoro-4-(5-fluoropyrazolo[1,5-a]pyridin-3-yl)-1-methyl-1H-pyrrolo[3,4-c]pyridin-3(2H)-one] showed an IC50 of 398 nM.
Next, `Cc1ccn2ncc(-c3nc(N[C@@H]4CCCC[C@@H]4N)c(F)c4c3C(=O)N[C@@H]4C)c2c1` [Example 54, (R)-6-(((1R,2S)-2-Aminocyclohexyl)amino)-7-fluoro-1-methyl-4-(5-methylpyrazolo[1,5-a]pyridin-3-yl)-1H-pyrrolo[3,4-c]pyridin-3(2H)-one]: 50.1 nM.
`Cc1ccn2ncc(-c3nc(N[C@@H]4CCCC[C@@H]4N)c(F)c4c3C(=O)N[C@H]4C)c2c1` [Example 55, (S)-6-(((1R,2S)-2-Aminocyclohexyl)amino)-7-fluoro-1-methyl-4-(5-methylpyrazolo[1,5-a]pyridin-3-yl)-1H-pyrrolo[3,4-c]pyridin-3(2H)-one] gave a half-maximal inhibitory concentration (IC50) of 251 nM.
Next, `Cc1cc(-c2nc(N[C@@H]3CCOC[C@@H]3N)c(F)c3c2C(=O)N[C@@H]3C)sn1` [Example 56, (R)-6-(((3R,4R)-3-Aminotetrahydro-2H-pyran-4-yl)amino)-7-fluoro-1-methyl-4-(3-methylisothiazol-5-yl)-1H-pyrrolo[3,4-c]pyridin-3(2H)-one]: 15.8 nM; `Cc1cc(-c2nc(N[C@@H]3CCOC[C@@H]3N)c(F)c3c2C(=O)N[C@H]3C)sn1` [Example 57, (S)-6-(((3R,4R)-3-Aminotetrahydro-2H-pyran-4-yl)amino)-7-fluoro-1-methyl-4-(3-methylisothiazol-5-yl)-1H-pyrrolo[3,4-c]pyridin-3(2H)-one]: 100 nM; `Cc1ccn2ncc(-c3nc(N[C@@H]4CCOC[C@@H]4N)c(F)c4c3C(=O)NC4)c2c1` [Example 58, 6-(((3R,4R)-3-Aminotetrahydro-2H-pyran-4-yl)amino)-7-fluoro-4-(5-methylpyrazolo[1,5-a]pyridin-3-yl)-1H-pyrrolo[3,4-c]pyridin-3 (2H)-one]: 12.6 nM.
`Cc1ccn2ncc(-c3nc(N[C@@H]4CCCC[C@@H]4N)c(F)c4c3C(=O)NC4)c2c1` [Example 59, 6-(((1R,2S)-2-Aminocyclohexyl)amino)-7-fluoro-4-(5-methylpyrazolo[1,5-a]pyridin-3-yl)-1H-pyrrolo[3,4-c]pyridin-3(2H)-one] showed a half-inhibitory concentration (IC50) of 2.51 nM.

As usually defined, the IC50 is the midpoint of a concentration-inhibition curve.
